Test results: patent US20250388623A1, “PEPTIDE INHIBITOR AND USE THEREOF” (CHENGDU BRILLIANT INSPIRATION BIOTHERAPEUTICS CO., LTD, priority 2022, published 2025)
Bridge positions count the residues as written; N and C are the ends. Peptide text beside a SMILES is read from it.

Molecular target: T1, binding of TSP-1 protein to CD36, a TSP-1 receptor protein (Homo sapiens, UniProt P07996)
T1 construct: purchased novoprotein (TSP-1); R&D Systems (Fc-tagged CD36) CU45 (TSP-1); 1955-CD-050 (CD36-Fc)
T1 sequence (P07996 19-1170): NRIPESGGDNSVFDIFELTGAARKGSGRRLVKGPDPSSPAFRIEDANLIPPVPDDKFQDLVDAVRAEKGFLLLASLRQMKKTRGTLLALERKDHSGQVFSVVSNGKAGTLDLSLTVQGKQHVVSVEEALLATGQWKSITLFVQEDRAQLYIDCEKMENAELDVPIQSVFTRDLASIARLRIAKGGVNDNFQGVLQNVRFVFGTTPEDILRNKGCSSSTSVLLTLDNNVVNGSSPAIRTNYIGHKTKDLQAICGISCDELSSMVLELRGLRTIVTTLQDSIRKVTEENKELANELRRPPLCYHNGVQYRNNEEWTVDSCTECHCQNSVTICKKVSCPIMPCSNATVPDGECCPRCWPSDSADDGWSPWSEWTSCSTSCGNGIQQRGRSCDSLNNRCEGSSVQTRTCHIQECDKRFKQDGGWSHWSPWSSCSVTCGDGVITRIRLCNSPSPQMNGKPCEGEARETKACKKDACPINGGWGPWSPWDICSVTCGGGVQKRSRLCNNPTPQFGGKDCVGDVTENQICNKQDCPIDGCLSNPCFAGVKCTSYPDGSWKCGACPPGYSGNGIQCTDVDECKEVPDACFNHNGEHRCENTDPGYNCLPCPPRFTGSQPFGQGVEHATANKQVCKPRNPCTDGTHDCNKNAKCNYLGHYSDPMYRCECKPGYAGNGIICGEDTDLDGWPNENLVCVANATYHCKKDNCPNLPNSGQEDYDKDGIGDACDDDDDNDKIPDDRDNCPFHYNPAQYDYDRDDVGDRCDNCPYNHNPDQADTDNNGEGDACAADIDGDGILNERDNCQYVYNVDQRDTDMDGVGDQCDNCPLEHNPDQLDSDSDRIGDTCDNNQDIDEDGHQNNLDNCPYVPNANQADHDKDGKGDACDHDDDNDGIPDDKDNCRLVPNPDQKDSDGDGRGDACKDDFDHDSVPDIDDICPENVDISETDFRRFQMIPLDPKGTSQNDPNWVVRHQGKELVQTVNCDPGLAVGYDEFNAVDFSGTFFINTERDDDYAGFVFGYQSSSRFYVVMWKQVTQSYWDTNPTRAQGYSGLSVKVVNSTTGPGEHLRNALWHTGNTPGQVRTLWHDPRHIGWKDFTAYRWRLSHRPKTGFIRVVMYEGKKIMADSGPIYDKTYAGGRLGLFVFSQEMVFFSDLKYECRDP
Assay: ELISA: blocking of CD36 binding to TSP-1 protein
Settings: for inhibition at 100 µM: 3 h, 100 μM polypeptide, 0.25 μg/mL Fc-tagged CD36, blocking of CD36 binding to TSP-1, read-out: Blocking rate (Mean, %); for IC50: concentrations 0-100 μM
Method in brief: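 Plate-bound TSP-1 (2 μg/mL coat) incubated 3 h at 37 °C with Fc-tagged CD36 (0.25 μg/mL final) ± polypeptide (100 μM final single-point; 0.5–100 μM for IC50); bound CD36 detected with FITC anti-Fc antibody fluorescence. Blocking rate = (control − treated)/control × 100%; IC50 from concentration dependence.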

inhibition at 100 µM | IC50 | Compound
37.5% | – | C[C@@H]1NC(=O)[C@H](CC(=O)O)NC(=O)[C@H](CCC(N)=O)NC(=O)[C@H]([C@@H](C)O)NC(=O)[C@H](CC(N)=O)NC(=O)[C@H](CC(=O)O)NC(=O)[C@H](CCC(=O)O)NC1=O [SEQ ID NO: 40, cyclo[Thr-Gln-Asp-Ala-Glu-Asp-Asn]] (cyclo(AEDNTQD))
52% | 3.62 µM | CC(=O)N[C@H](C(=O)N[C@H]1CSSC[C@@H](C(=O)O)NC(=O)[C@H](CC(N)=O)NC(=O)[C@H](CC(=O)O)NC(=O)[C@H](CCC(=O)O)NC(=O)[C@H](C)NC(=O)[C@H](CC(=O)O)NC1=O)[C@@H](C)O [SEQ ID NO: 43, Ac-Thr-cyclo[Cys-Asp-Ala-Glu-Asp-Asn-Cys]] (Ac-TCDAEDNC-OH; disulfide 2-8)
52.9% | 6.71 µM | CC(=O)N[C@H](C(=O)N[C@H]1CSSC[C@@H](C(N)=O)NC(=O)[C@H](CC(N)=O)NC(=O)[C@H](CC(=O)O)NC(=O)[C@H](CCC(=O)O)NC(=O)[C@H](C)NC(=O)[C@H](CC(=O)O)NC1=O)[C@@H](C)O [SEQ ID NO: 44, Ac-Thr-cyclo[Cys-Asp-Ala-Glu-Asp-Asn-Cys]-NH2] (Ac-TCDAEDNC-NH2; disulfide 2-8)
56.1% | – | C[C@@H]1NC(=O)[C@H]([C@@H](C)O)NC(=O)[C@H](CC(N)=O)NC(=O)[C@H](CC(=O)O)NC(=O)[C@H](CCC(=O)O)NC(=O)[C@@H]2CCCN2C(=O)[C@H](CC(=O)O)NC(=O)[C@H](CCC(N)=O)NC(=O)[C@H]([C@@H](C)O)NC(=O)[C@H](CO)NC1=O [SEQ ID NO: 46, cyclo[Thr-Gln-Asp-Pro-Glu-Asp-Asn-Thr-Ala-Ser]] (cyclo(ASTQDPEDNT))
17.7% | – | Ac-TQDAEDN-NH2 [SEQ ID NO: 06, Ac-Thr-Gln-Asp-Ala-Glu-Asp-Asn-NH2]
21.4% | – | Ac-TQDAEDNTASH-NH2 [SEQ ID NO: 33, Ac-Thr-Gln-Asp-Ala-Glu-Asp-Asn-Thr-Ala-Ser-His-NH2]
40.9% | – | Ac-TQDAEDPTA-NH2 [SEQ ID NO: 22, Ac-Thr-Gln-Asp-Ala-Glu-Asp-Pro-Thr-Ala-NH2]
33% | – | Ac-TQDAEDPTAS-NH2 [SEQ ID NO: 25, Ac-Thr-Gln-Asp-Ala-Glu-Asp-Pro-Thr-Ala-Ser-NH2]
53.8% | – | Ac-TQDPEDNTAS-NH2 [SEQ ID NO: 26, Ac-Thr-Gln-Asp-Pro-Glu-Asp-Asn-Thr-Ala-Ser-NH2]
